What was measured:
KM12 = test: Growth inhibition of human KM12 cells after 48 hrs by sulforhodamine B assay; format: functional; conditions: KM12, 48 h
[1] = Growth inhibition of human HCC2998 cells after 48 hrs by sulforhodamine B assay; format: functional; conditions: HCC 2998, 48 h
UACC-257 = test: Growth inhibition of human UACC257 cells after 48 hrs by sulforhodamine B assay; format: functional; conditions: UACC-257, 48 h
IGROV-1 = test: Growth inhibition of human IGROV1 cells after 48 hrs by sulforhodamine B assay; format: functional; conditions: IGROV-1, 48 h
MDA-MB-468 = test: Growth inhibition of human MDA-MB-468 cells after 48 hrs by sulforhodamine B assay; format: functional; conditions: MDA-MB-468, 48 h
RPMI-8226 = test: Growth inhibition of human RPMI8226 cells after 48 hrs by sulforhodamine B assay; format: functional; conditions: RPMI-8226, 48 h
HCT-15 = test: Growth inhibition of human HCT15 cells after 48 hrs by sulforhodamine B assay; format: functional; conditions: HCT-15, 48 h
MCF7 = test: Growth inhibition of human MCF7 cells after 48 hrs by sulforhodamine B assay; format: functional; conditions: MCF7, 48 h
HCT-116 = test: Growth inhibition of human HCT116 cells after 48 hrs by sulforhodamine B assay; format: functional; conditions: HCT-116, 48 h
SF-268 = test: Growth inhibition of human SF268 cells after 48 hrs by sulforhodamine B assay; format: functional; conditions: SF-268, 48 h
UO-31 = test: Growth inhibition of human UO31 cells after 48 hrs by sulforhodamine B assay; format: functional; conditions: UO-31, 48 h
SF-539 = test: Growth inhibition of human SF539 cells after 48 hrs by sulforhodamine B assay; format: functional; conditions: SF-539, 48 h
SN12C = test: Growth inhibition of human SN12C cells after 48 hrs by sulforhodamine B assay; format: functional
RXF 393 = test: Growth inhibition of human RXF393 cells after 48 hrs by sulforhodamine B assay; format: functional; conditions: RXF 393, 48 h
SK-OV-3 = test: Growth inhibition of human SKOV3 cells after 48 hrs by sulforhodamine B assay; format: functional; conditions: SK-OV-3, 48 h
A549 = test: Growth inhibition of human A549/ATCC cells after 48 hrs by sulforhodamine B assay; format: functional; conditions: A549, 48 h
NCI-H23 = test: Growth inhibition of human NCI-H23 cells after 48 hrs by sulforhodamine B assay; format: functional; conditions: NCI-H23, 48 h
PC-3 = test: Growth inhibition of human PC3 cells after 48 hrs by sulforhodamine B assay; format: functional; conditions: PC-3, 48 h
BT-549 = test: Growth inhibition of human BT549 cells after 48 hrs by sulforhodamine B assay; format: functional; conditions: BT-549, 48 h
OVCAR-3 = test: Growth inhibition of human OVCAR3 cells after 48 hrs by sulforhodamine B assay; format: functional; conditions: OVCAR-3, 48 h
MDA-MB-435 = test: Growth inhibition of human MDA-MB-435 cells after 48 hrs by sulforhodamine B assay; format: functional; conditions: MDA-MB-435, 48 h
SW-620 = test: Growth inhibition of human SW620 cells after 48 hrs by sulforhodamine B assay; format: functional; conditions: SW-620, 48 h
[2] = Growth inhibition of human NCI-ADR-RES cells after 48 hrs by sulforhodamine B assay; format: functional
UACC-62 = test: Growth inhibition of human UACC62 cells after 48 hrs by sulforhodamine B assay; format: functional; conditions: UACC-62, 48 h
TK-10 = test: Growth inhibition of human TK10 cells after 48 hrs by sulforhodamine B assay; format: functional; conditions: TK-10, 48 h
HL-60(TB) = test: Growth inhibition of human HL-60(TB) cells after 48 hrs by sulforhodamine B assay; format: functional; conditions: HL-60, 48 h
[3] = Inhibition of sheep brain tubulin polymerization using DAPI by fluorimetry; parameters: species or system Ovis aries
M14 = test: Growth inhibition of human M14 cells after 48 hrs by sulforhodamine B assay; format: functional; conditions: M14, 48 h
SK-MEL-5 = test: Growth inhibition of human SK-MEL-5 cells after 48 hrs by sulforhodamine B assay; format: functional; conditions: SK-MEL-5, 48 h
NCI-H460 = test: Growth inhibition of human NCI-H460 cells after 48 hrs by sulforhodamine B assay; format: functional; conditions: NCI-H460, 48 h
MDA-MB-231 = test: Growth inhibition of human MDA-MB-231 cells after 48 hrs by sulforhodamine B assay; format: functional; conditions: MDA-MB-231, 48 h
[4] = Growth inhibition of human Hs 578T cells after 48 hrs by sulforhodamine B assay; format: functional
Ovis aries = species: Ovis aries; test: Inhibition of sheep brain tubulin polymerization at 100 uM using DAPI by fluorimetry
OVCAR-4 = test: Growth inhibition of human OVCAR4 cells after 48 hrs by sulforhodamine B assay; format: functional; conditions: OVCAR-4, 48 h
COLO 205 = test: Growth inhibition of human COLO205 cells after 48 hrs by sulforhodamine B assay; format: functional; conditions: COLO 205, 48 h
LOX IMVI = test: Growth inhibition of human LOXIMVI cells after 48 hrs by sulforhodamine B assay; format: functional
HT-29 = test: Growth inhibition of human HT-29 cells after 48 hrs by sulforhodamine B assay; format: functional; conditions: HT-29, 48 h
K562 = test: Growth inhibition of human K562 cells after 48 hrs by sulforhodamine B assay; format: functional; conditions: K562, 48 h
NCI-H522 = test: Growth inhibition of human NCI-H522 cells after 48 hrs by sulforhodamine B assay; format: functional; conditions: NCI-H522, 48 h
ACHN = test: Growth inhibition of human ACHN cells after 48 hrs by sulforhodamine B assay; format: functional
SNB-75 = test: Growth inhibition of human SNB75 cells after 48 hrs by sulforhodamine B assay; format: functional; conditions: SNB-75, 48 h
MOLT-4 = test: Growth inhibition of human MOLT4 cells after 48 hrs by sulforhodamine B assay; format: functional; conditions: MOLT-4, 48 h
HOP-62 = test: Growth inhibition of human HOP62 cells after 48 hrs by sulforhodamine B assay; format: functional; conditions: HOP-62, 48 h
SK-MEL-2 = test: Growth inhibition of human SK-MEL-2 cells after 48 hrs by sulforhodamine B assay; format: functional; conditions: SK-MEL-2, 48 h
SR = test: Growth inhibition of human SR cells after 48 hrs by sulforhodamine B assay; format: functional
CCRF-CEM = test: Growth inhibition of human CCRF-CEM cells after 48 hrs by sulforhodamine B assay; format: functional
786-0 = test: Growth inhibition of human 786-0 cells after 48 hrs by sulforhodamine B assay; format: functional; conditions: 786-0, 48 h
SK-MEL-28 = test: Growth inhibition of human SK-MEL-28 cells after 48 hrs by sulforhodamine B assay; format: functional; conditions: SK-MEL-28, 48 h
SF-295 = test: Growth inhibition of human SF295 cells after 48 hrs by sulforhodamine B assay; format: functional; conditions: SF-295, 48 h
OVCAR-8 = test: Growth inhibition of human OVCAR8 cells after 48 hrs by sulforhodamine B assay; format: functional; conditions: OVCAR-8, 48 h
CAKI-1 = test: Growth inhibition of human CAKI-1 cells after 48 hrs by sulforhodamine B assay; format: functional; conditions: CAKI-1, 48 h
DU-145 = test: Growth inhibition of human DU145 cells after 48 hrs by sulforhodamine B assay; format: functional; conditions: DU-145, 48 h
HOP-92 = test: Growth inhibition of human HOP92 cells after 48 hrs by sulforhodamine B assay; format: functional; conditions: HOP-92, 48 h
A498 = test: Growth inhibition of human A498 cells after 48 hrs by sulforhodamine B assay; format: functional; conditions: A498, 48 h

**Q.** With `COc1ccc(C(=O)N2c3ccccc3Sc3ccccc32)cc1N` as the compound, how does the GI50 (KM12) read?
**A.** 97 nM

**Q.** What about the GI50 [1] of the same compound?
**A.** 683 nM

**Q.** What about the GI50 (UACC-257) of the same compound?
**A.** 1940 nM

**Q.** What about the GI50 (IGROV-1) of the same compound?
**A.** 721 nM

**Q.** What about the GI50 (MDA-MB-468) of the same compound?
**A.** 50 nM

**Q.** What about the GI50 (RPMI-8226) of the same compound?
**A.** 328 nM

**Q.** What about the GI50 (HCT-15) of the same compound?
**A.** 73 nM

**Q.** What about the GI50 (MCF7) of the same compound?
**A.** 93 nM

**Q.** And the GI50 (HCT-116)?
**A.** 166 nM

**Q.** What about the GI50 (SF-268) of the same compound?
**A.** 958 nM

**Q.** And the GI50 (UO-31)?
**A.** 650 nM

**Q.** What about the GI50 (SF-539) of the same compound?
**A.** 164 nM

**Q.** What about the GI50 (SN12C) of the same compound?
**A.** 798 nM

**Q.** What about the GI50 (RXF 393) of the same compound?
**A.** 130 nM

**Q.** What about the GI50 (SK-OV-3) of the same compound?
**A.** 244 nM

**Q.** And the GI50 (A549)?
**A.** 187 nM

**Q.** What about the GI50 (NCI-H23) of the same compound?
**A.** 437 nM

**Q.** What about the GI50 (PC-3) of the same compound?
**A.** 310 nM

**Q.** And the GI50 (BT-549)?
**A.** 877 nM

**Q.** And the GI50 (OVCAR-3)?
**A.** 101 nM

**Q.** What about the GI50 (MDA-MB-435) of the same compound?
**A.** 29 nM

**Q.** What about the GI50 (SW-620) of the same compound?
**A.** 90 nM

**Q.** And the GI50 [2]?
**A.** 80 nM

**Q.** And the GI50 (UACC-62)?
**A.** 127 nM

**Q.** What about the GI50 (TK-10) of the same compound?
**A.** 575 nM

**Q.** And the GI50 (HL-60(TB))?
**A.** 245 nM

**Q.** And the IC50 [3]?
**A.** 11800 nM

**Q.** What about the GI50 (M14) of the same compound?
**A.** 90 nM

**Q.** What about the GI50 (SK-MEL-5) of the same compound?
**A.** 53 nM

**Q.** What about the GI50 (NCI-H460) of the same compound?
**A.** 289 nM

**Q.** What about the GI50 (MDA-MB-231) of the same compound?
**A.** 310 nM

**Q.** What about the GI50 [4] of the same compound?
**A.** 424 nM

**Q.** And the inhibition (Ovis aries)?
**A.** 99%

**Q.** What about the GI50 (OVCAR-4) of the same compound?
**A.** 1210 nM

**Q.** What about the GI50 (COLO 205) of the same compound?
**A.** 193 nM

**Q.** And the GI50 (LOX IMVI)?
**A.** 881 nM

**Q.** What about the GI50 (HT-29) of the same compound?
**A.** 151 nM

**Q.** And the GI50 (K562)?
**A.** 40 nM

**Q.** And the GI50 (NCI-H522)?
**A.** 35 nM

**Q.** What about the GI50 (ACHN) of the same compound?
**A.** 472 nM

**Q.** And the GI50 (SNB-75)?
**A.** 257 nM

**Q.** And the GI50 (MOLT-4)?
**A.** 380 nM

**Q.** What about the GI50 (HOP-62) of the same compound?
**A.** 226 nM

**Q.** And the GI50 (SK-MEL-2)?
**A.** 134 nM

**Q.** What about the GI50 (SR) of the same compound?
**A.** 30 nM

**Q.** And the GI50 (CCRF-CEM)?
**A.** 268 nM

**Q.** What about the GI50 (786-0) of the same compound?
**A.** 524 nM

**Q.** And the GI50 (SK-MEL-28)?
**A.** 407 nM

**Q.** What about the GI50 (SF-295) of the same compound?
**A.** 71 nM

**Q.** And the GI50 (OVCAR-8)?
**A.** 366 nM

**Q.** And the GI50 (CAKI-1)?
**A.** 290 nM

**Q.** And the GI50 (DU-145)?
**A.** 291 nM

**Q.** What about the GI50 (HOP-92) of the same compound?
**A.** 277 nM

**Q.** What about the GI50 (A498) of the same compound?
**A.** 129 nM

— ChEMBL document CHEMBL2331144, “Synthesis and anticancer activity of analogues of phenstatin, with a phenothiazine A-ring, as a new class of microtubule-targeting agents” (Bioorg Med Chem Lett, 2013)
